This passage reports cytotoxicity results from ChEMBL document CHEMBL3507680, “University of Dundee, Gates Library screen for HepG2 cell viability”.

SMILES strings stand for the structures.

A short description of the data set: Human HepG2 cell viability assay in 384 well format. It is filed as toxicity, cell-based. The note with it: HepG2 cells, read-out: Inhibition. On the set-up: dose 125 nL, time 70.5 hour; concentration not given beside the values.
As for `COc1ccc(Cl)cc1-c1nc(N)nc(N(C)C)n1`, the cytotoxicity at 70.5 h was -6.28%.

Regarding `Cc1cc(NCCN)nc2ccccc12`, the cytotoxicity at 70.5 h was -11.3%.

As for `COC1CCCN(Cc2nc(Cc3ccccc3F)no2)C1` (configuration not stated), the cytotoxicity at 70.5 h is -5.83%.

As to `Cc1ccnc(NC(=O)CCNC(=O)c2ccccc2Cl)c1`, the cytotoxicity at 70.5 h was -1.99%.

In the case of `Cc1ccc(OCc2occc2C(=O)O)cc1`, the cytotoxicity at 70.5 h was -5.9%.

For the compound `NC(=O)C(Cc1ccccc1)NS(=O)(=O)Cc1ccccc1Cl` (configuration not stated), the cytotoxicity at 70.5 h worked out at 7.03%.

Consider `CCn1cnnc1CN(C)C(=O)C1CCC(=O)N(CC2CCCCC2)C1` (configuration not stated), for which the cytotoxicity at 70.5 h is -6.42%.

As for `NS(=O)(=O)c1cccnc1NCc1ccco1`, the cytotoxicity at 70.5 h was -4.56%.

For the compound `CC(=O)NCCC(=O)NCc1cccnc1-n1cnc2ccccc21`, the cytotoxicity at 70.5 h was -8.92%.

For `CCC(=O)N1CCCc2c(cnn2C)C1`, the cytotoxicity at 70.5 h turned out to be 23.9%.

As for `Cn1ncc2c1CCCN(C(=O)C1CCC1)C2`, the cytotoxicity at 70.5 h was -2.82%.

Regarding `O=C(c1sccc1-n1cnnn1)N1CCC(Cc2ccccc2)CC1`, the cytotoxicity at 70.5 h was -4.62%.

For `CCOc1ccccc1-c1noc(CN(C)Cc2cnn(C)c2)n1`, the cytotoxicity at 70.5 h came out at 2%.

Consider `COc1ccc(CCCN(C)C(=O)c2cc(C(C)=O)c[nH]2)cc1OC`, for which the cytotoxicity at 70.5 h is -8.38%.

Regarding `CNC(=O)NC(=O)C(NCc1cccs1)c1ccccc1` (configuration not stated), the cytotoxicity at 70.5 h stood at 34.4%.

For the compound `COc1ccc(CN(C)C(=O)CSc2nnc(N)s2)c(OC)c1OC`, the cytotoxicity at 70.5 h is -5.3%.

Turning to `CN(CC(=O)NCCc1ccccn1)C(=O)c1cccs1`, the cytotoxicity at 70.5 h was -19.9%.

Take `CC1CCN(S(=O)(=O)N2CCc3sccc3C2)CC1`: the cytotoxicity at 70.5 h stood at 45%.

For `COc1ccc(C2C3=C(CCCC3=O)Nc3nc(SC)nc(N)c32)cc1` (configuration not stated), the cytotoxicity at 70.5 h is 6.58%.

As for `CC(Sc1nc(N)cc(N)n1)c1nc(C(C)(C)C)no1` (configuration not stated), the cytotoxicity at 70.5 h is -2.01%.

With `CS(=O)(=O)N1CCN(C(=O)CN2CCCc3c(F)cc(F)cc32)CC1`, the cytotoxicity at 70.5 h was -3.95%.

As to `COc1ccnc(N2CCN(CC(=O)N3CCOCC3)CC2)n1`, the cytotoxicity at 70.5 h is 2.32%.

Regarding `CC(CNC(=O)Nc1ccc(C#N)cc1)N1CCc2ccccc21` (configuration not stated), the cytotoxicity at 70.5 h worked out at 4.28%.

Regarding `CCOC(=O)CCC(=O)NC(C)c1ccc(NC(=O)CC)cc1` (configuration not stated), the cytotoxicity at 70.5 h was -3.08%.

`O=C(c1cc(Cl)c(Br)[nH]1)N1CCN(Cc2ccco2)CC1`: the cytotoxicity at 70.5 h was -6.08%.

With `COc1c(Br)cc(Cl)cc1NCc1c(C)noc1C`, the cytotoxicity at 70.5 h came out at 11.5%.

In the case of `O=C(NCc1nnc2n1CCC2)c1cn(-c2cccc(Br)c2)nn1`, the cytotoxicity at 70.5 h was -6.53%.

For `Cc1nccn1C1(C(=O)O)CCN(Cc2ccc3c(c2)OCCO3)CC1`, the cytotoxicity at 70.5 h is -3.95%.

For `O=C(c1ccc(S(=O)(=O)NCc2ccon2)cc1)N1CCNCC1`, the cytotoxicity at 70.5 h is -6.36%.

For `CN(C)S(=O)(=O)N1CCOCC1CC(=O)NCCOc1ccccc1` (configuration not stated), the cytotoxicity at 70.5 h was -15.5%.

As for `O=C(CC1COCCN1)N1CCCN(C2Cc3ccccc3C2)CC1` (configuration not stated), the cytotoxicity at 70.5 h is -3.92%.

Turning to `Cc1cc(C2CCC2)nc(N(C)Cc2ncccc2C)n1`, the cytotoxicity at 70.5 h stood at 2.14%.

As for `COc1cccc(-c2n[nH]c3c2CN(C(=O)c2ccncc2)CC3)c1`, the cytotoxicity at 70.5 h was -5.87%.

On to `COc1cc(C)cc(-c2nc3c([nH]2)CCNC3)c1OC`, for which the cytotoxicity at 70.5 h came out at 9.79%.

Consider `O=C(NC1CC1)C1CNCCN1C(=O)CCc1ccc2c(c1)OCO2` (configuration not stated), for which the cytotoxicity at 70.5 h was -3.72%.

On to `O=C(c1cc2c([nH]c1=O)CCC2)N1CCCCC1c1cccc(F)c1` (configuration not stated), for which the cytotoxicity at 70.5 h worked out at 2.02%.

In the case of `COCCC(=O)N1CCCC(CCc2ccc(F)c(F)c2)C1` (configuration not stated), the cytotoxicity at 70.5 h is -9.08%.

As to `O=C(O)C(c1ccc(Cl)c(F)c1)N1CCN(Cc2ccccn2)CC1` (configuration not stated), the cytotoxicity at 70.5 h was -2.57%.

With `CCCc1cc(C(=O)N2C[C@H]3CC=C(C)C[C@H]3C2)ccn1`, the cytotoxicity at 70.5 h was -8.24%.

`N#Cc1cccc(C(=O)N2CCCC(C(=O)CCc3ccccc3)C2)c1` (configuration not stated): the cytotoxicity at 70.5 h is -5.64%.

As for `O=C1CCCN1CCN1CC[C@@]2(O)CCN(c3ncccn3)C[C@H]2C1`, the cytotoxicity at 70.5 h amounted to 15.5%.

In the case of `COc1ccc([C@@H]2CN(Cc3cccnc3N)C[C@H]2N(C)C)cc1`, the cytotoxicity at 70.5 h was -2.88%.

Consider `CCc1nc2c(NCC3COc4ccccc4C3)ncnc2o1` (configuration not stated), for which the cytotoxicity at 70.5 h is -1.81%.

As for `OCC1(O)CCN(Cc2ccc(-c3cc[nH]n3)s2)CC1`, the cytotoxicity at 70.5 h stood at 6.86%.

As for `Cc1c(-c2c(-c3ccccc3)ncn2[C@H](CO)C(=O)O)cnn1C`, the cytotoxicity at 70.5 h was -7.01%.

As for `CCC[C@@H]1CN(Cc2c[nH]c(CC3CCCC3)n2)C[C@H]1C(=O)O`, the cytotoxicity at 70.5 h was -7.4%.

With `CC(C)CC(O)C1CCN(C(=O)c2ccc(C(C)C)[nH]c2=O)CC1` (configuration not stated), the cytotoxicity at 70.5 h worked out at 18.9%.

For `COC(=O)c1cc(CN2CCN(c3nc(C)cnc3C)CC2)ccc1O`, the cytotoxicity at 70.5 h is -1.95%.

Consider `Cc1nc[nH]c1CN(C)CC1CCCN(CCc2ccc(Cl)cc2)C1` (configuration not stated), for which the cytotoxicity at 70.5 h stood at 20.5%.

Take `Cc1ccc(-c2cn[nH]c2C2CCCN(c3nccc(N)n3)C2)cc1` (configuration not stated): the cytotoxicity at 70.5 h was -1.62%.

In the case of `CCn1ncnc1C1CC(=O)NCc2nc3ccccn3c21` (configuration not stated), the cytotoxicity at 70.5 h is -3.8%.

`CN(C)C(=O)N1CCN(Cc2ccccc2)[C@@H]2CS(=O)(=O)C[C@@H]21`: the cytotoxicity at 70.5 h was -7.42%.

Take `CCc1ccc(CN2CCCC(CO)(CCOC)C2)cc1` (configuration not stated): the cytotoxicity at 70.5 h was -8.83%.

Turning to `CC(C)CN1CCCn2nc(CNC(=O)CCCc3cn[nH]c3)cc2C1`, the cytotoxicity at 70.5 h is -9.85%.

`CCc1nccc(CN2CCCC(c3nn(C)c(=O)n3CC)C2)n1` (configuration not stated): the cytotoxicity at 70.5 h was -3.33%.

As to `Nc1nccc(N2CCC(Cc3ccccc3Cl)(C(=O)O)CC2)n1`, the cytotoxicity at 70.5 h was -2.75%.

For `NC(=O)NCC(=O)N1C[C@H]2CC[C@@H]1CN(C1Cc3ccccc3C1)C2`, the cytotoxicity at 70.5 h is -10.1%.

Turning to `Cc1ncc(S(C)(=O)=O)c(C2CCCNC2)n1` (configuration not stated), the cytotoxicity at 70.5 h stood at 2.69%.

Consider `CCn1c(CN2CCCC2)nnc1C1CCN(Cc2ccc(C)o2)CC1`, for which the cytotoxicity at 70.5 h is -5.38%.

`N#Cc1c(C2CC2)cc(-c2ccc(O)cc2)nc1N`: the cytotoxicity at 70.5 h was 1.29%.

On to `Cn1c(Cn2cccn2)nnc1C1CCN(Cc2cccnc2N)CC1`, for which the cytotoxicity at 70.5 h was -0.251%.

Consider `Cc1nc(N2CCCCC2)ncc1C(=O)N1CC(C)(C)[C@@](C)(O)C1`, for which the cytotoxicity at 70.5 h is -6.11%.

In the case of `Cc1nccc(N2CCC(=O)N(Cc3ccc(F)cc3)C(C(C)C)C2)n1` (configuration not stated), the cytotoxicity at 70.5 h was -2.7%.

For `O=C(Nc1ccc(F)cc1)N1C[C@H]2CC[C@@H]1CN(Cc1cccnc1)C2`, the cytotoxicity at 70.5 h is -3.12%.

Turning to `OCCOCCN1CCCC1c1nc2cc(F)ccc2[nH]1` (configuration not stated), the cytotoxicity at 70.5 h was 12%.

With `Cc1nn2c(N3CCC(O)C3)cc(-c3ccccc3)nc2c1C` (configuration not stated), the cytotoxicity at 70.5 h is -5.83%.

`O=C(C1CC(=O)N(C2CCCC2)C1)N1CCN(CCn2cccc2)CC1` (configuration not stated): the cytotoxicity at 70.5 h was -5.71%.

As for `CCOC(=O)C1CCCN(c2ccc(-c3nc(C)no3)cn2)C1` (configuration not stated), the cytotoxicity at 70.5 h was -4.38%.

On to `Cc1ncc(C(=O)N2C[C@H]3CC[C@@H]2CN(S(=O)(=O)N(C)C)C3)c(C)n1`, for which the cytotoxicity at 70.5 h is -11.5%.

As to `Cn1c(Cn2cccn2)nnc1C1CCCN(c2ccncc2F)C1` (configuration not stated), the cytotoxicity at 70.5 h was found to be 3.69%.

On to `CN1CC(c2ccccc2)CC12CCN(C(=O)c1ccc(F)cc1)CC2` (configuration not stated), for which the cytotoxicity at 70.5 h was -4.24%.

For the compound `CCc1cc(NCCNc2cccnc2)n2nccc2n1`, the cytotoxicity at 70.5 h is -7.64%.

For `Cc1cccc(C(=O)N2CCCCC2c2ccc(CN(C)C)cc2)n1` (configuration not stated), the cytotoxicity at 70.5 h is 18.3%.

Consider `O=C1CC[C@H]2CN(Cc3ccc(Cl)s3)CC[C@H]2N1CCc1c[nH]cn1`, for which the cytotoxicity at 70.5 h was -7.7%.

For `CSc1ncc(C(=O)N2C[C@H]3CC[C@@H]2CN(Cc2ccccc2)C3)cn1`, the cytotoxicity at 70.5 h was -1.13%.

Turning to `CC(=O)Nc1ccc(CNC2CC(=O)N(Cc3cccc(F)c3)C2)cc1` (configuration not stated), the cytotoxicity at 70.5 h was -8.05%.

As to `CCCn1c(C)c(CC(=O)NC)c2c1CC(C)(C)CC2=O`, the cytotoxicity at 70.5 h was -6.96%.

As to `O=C(CCn1cccn1)N1C[C@@H]2CC[C@H](C1)N(Cc1ccccn1)C2=O`, the cytotoxicity at 70.5 h was -2.38%.

On to `Cn1ccc2ccc(C(=O)N3CCN(C(=O)N4CCOCC4)CC3)cc21`, for which the cytotoxicity at 70.5 h turned out to be 23.3%.

With `Cc1nc(CCCNC(=O)C2CC(=O)N(C(C)(C)C)C2)sc1C` (configuration not stated), the cytotoxicity at 70.5 h was -7.69%.

As for `COc1cccc(N2CCN(Cc3ncc[nH]3)CC2=O)c1`, the cytotoxicity at 70.5 h is -10.6%.

On to `CC(C)N1CCCC2(CCN(C(=O)CCCn3ccnc3)C2)C1=O` (configuration not stated), for which the cytotoxicity at 70.5 h was -12.1%.

`COC(=O)c1cccc(C(=O)N2CCCCC2CCn2ccnc2C)c1` (configuration not stated): the cytotoxicity at 70.5 h was -1.17%.

As for `CCC(=O)N1CCC2(CC1)c1nc[nH]c1CCN2S(C)(=O)=O`, the cytotoxicity at 70.5 h was -4.48%.

For `CCCOCCN1CCC2(CC1)CC(c1ccccc1)C(=O)N2C` (configuration not stated), the cytotoxicity at 70.5 h was found to be 25.1%.

As to `CCC(CO)N(Cc1ccccn1)C(=O)c1ccc2c(c1)CCO2` (configuration not stated), the cytotoxicity at 70.5 h was determined as 15%.

Consider `CN1CCN(Cc2nnc(C3CCN(CC4CC4)CC3)n2C)CC1`, for which the cytotoxicity at 70.5 h was -2.48%.

Turning to `COc1ccc(C(C(=O)O)N2CCCN(C3CCCCC3)CC2)cn1` (configuration not stated), the cytotoxicity at 70.5 h is -10.2%.

As to `Cc1nc(C)c(CC(=O)N2C[C@@H]3CC[C@H](C2)N(CC2CCC2)C3)c(=O)[nH]1`, the cytotoxicity at 70.5 h is -6.37%.

In the case of `COc1ccccc1C1CNC(=O)c2nc(-c3ncc[nH]3)[nH]c2C1` (configuration not stated), the cytotoxicity at 70.5 h is -10.6%.

Regarding `Cc1ncc(-c2nc3cc(S(=O)(=O)N4CCCC4)ccc3n2C)cn1`, the cytotoxicity at 70.5 h was -0.434%.

Regarding `CCn1nc(C)c(CNC(=O)c2cn(CC3CCCO3)nn2)c1C` (configuration not stated), the cytotoxicity at 70.5 h is -1.67%.

On to `COCCN1CCCC(O)(CN2CCN(c3ncccc3C)CC2)C1=O` (configuration not stated), for which the cytotoxicity at 70.5 h is -7.68%.

As for `NCC1CN(c2nc(-c3ccccc3)nc3c2CCNCC3)CCO1` (configuration not stated), the cytotoxicity at 70.5 h stood at 3.02%.

In the case of `CC(C)N(Cc1ccc(C(=O)O)o1)C(C)C`, the cytotoxicity at 70.5 h is -7.28%.

On to `O=C1NCCCCC1NCc1csc(-c2ccc(F)cc2)n1` (configuration not stated), for which the cytotoxicity at 70.5 h was determined as 6.14%.

For the compound `CC1CCN(CCCNS(=O)(=O)c2cccc(F)c2)CC1`, the cytotoxicity at 70.5 h was -13.7%.
